Where “and” joins values, the source holds several entries; their conditions need not be identical. Identical values can stand only once. Like-named read-outs stand apart in the source and are kept apart here.
Experiments:
[1] = molecular target: HIV-1 protease (Human immunodeficiency virus type 1 group M subtype B, UniProt P04585); assay: Fluorescence HIV-1 Protease Inhibitor Assay (Pandex); assay type: biochemical; design: made in house; host or cells: E. coli K12 L507/pHP10D (NRRL B-18560)
[2] = tested on: HIV-1 isolates IIIB and/or RF in MT-2 cells; assay: SRI primary anti-HIV screen, MTT assay of inhibition of HIV-induced cell killing in MT2 cells; assay type: cell-based; details: MT2 cells
From the text: I. Primary Drug Screening of Anti-HIV Compounds at Southern Research Institute (SRI) (Results recorded in Table 1 are designated “SRI CEM (ng/ml)” or “SRI MT2 (ng/ml)”)
(§1) A. Principle of MTT Assay:
(§2) SRI has an established program for the primary antiviral analysis of compounds in microtiter assays which measures the ability of a selected compound to inhibit HIV-induced cell killing. This assay involves the conversion of the tetrazolium dye MTT to a colored formazan product by mitochondrial enzymes in metabolically active cells. This assay system is used at SRI to screen over 30,000 compounds per year. Briefly, the assay involves the infection of CEM or MT2 cells in round bottom 96-well plates. The compound of interest is added just prior to infection. Following 6 days of incubation at 37° C. the plates are stained with MTT. The results of the assay are quantitated spectrophotometrically on a Molecular Devices Vmax plate reader. The data are analyzed by linear regression utilizing an in-house software program to calculate antiviral activity (IC25, IC50, IC95) and toxicity (TC25, TC50, TC95) as well as other values.
(§3) Primary antiviral assays are routinely performed in CEM or MT-2 cells.
(§4) B. Standard Screening Assays in CEM and MT-2 Cells
(§5) 1. Compound dilution and delivery to the plates
Drugs are solubilized in the appropriate vehicle such as distilled water or DMSO if necessary. Latex gloves, lab coats and masks are used during all phases of the handling process to prevent exposure to potentially harmful agents. The drug is prepared at the appropriate concentration and stored at −20° C. until used by the screening laboratory. The first dilution of each compound is made in a dilution tube with medium to yield a concentration two-fold that of the highest test concentration. Sterile titer tubes are then used to make serial one half-log dilutions of each compound. Following drug dilution, the diluted compound is added to the appropriate well of a 96-well microtiter plate. […] When testing includes only six dilutions, two drugs can be assayed on a single microtiter plate. The drugs are added to the plate in a final volume of 100 microliters.
(§6) During the time the drug dilutions are prepared, cells are washed and counted. Viability is monitored by trypan blue dye exclusion and assays are not performed if the viability falls below 90%. Cells are maintained in an exponential growth phase and are split 1:2 on the day prior to assay to assure exponential growth rate.
(§7) For the primary screen, the cell lines utilized are CEM and MT-2. Unless otherwise indicated, the medium used is RPMI 1640 with 10% heat-inactivated fetal calf serum (FBS), glutamine and antibiotics.
(§8) Cells are propagated at 37° C. in an atmosphere of 5% CO2 in air. The virus employed for this work is HIV-1 isolates IIIB and/or RF, which are prepared by an acute infection process.
(§9) Briefly, virus-infected cells are pelleted on a daily basis beginning at three days post-infection until the virus has killed all of the cells in the culture. Reverse transcriptase activity and p24 ELISA are used to identify pools with the greatest amout of virus.
(§10) These 24-hour harvests are pooled, filtered and frozen at −90° C. Prior to use in the assay, the infectious pool of virus is titered on all available cell lines in order to determine the amount of virus required in the antiviral assay.
In general, pools produced by the acute infection method require the addition of one microliter of infectious virus per well resulting in the screening of drugs at a multiplicity of infection of 0.01. In this manner, enough virus is prepared and frozen to complete over one thousand microtiter plates, allowing the testing of up to two thousand compounds from a single stock of infectious virus. The use of a single stock of virus for a long period of testing has very favorable effects on the repeatability of the assay systems. […]

[3] = tested on: Viral SN123 infected CEM cells; details: Human immunodeficiency virus 1, CCRF-CEM, values in parentheses are 35B in same assay
Procedure: Purpose: To determine IC50 CC50 for compounds:
Media A [1% DMSO] (100 microliters DMSO+9.9 ml media A)
CEM cells @ [1×10^4] cells/ml (4 plate=40 ml) (6 plate=60 ml)
(need 70 microliters of each)
A-D at [10 mM] in 100% DMSO
4 or 6 u-bottom 96-well plates
4 flat bottom 96-well plates for dilutions
8-10 boxes of sterile costar tips
Approximately 10 reagent trays
1000 cells/well=1×10^4 cells/ml=1000 cells/100 microliters 200 microliters=total volume in a well
Cell Preparation and Plating of Cells, Media A and Media A (1% DMSO)
a. Number a 96-well tissue culture plate for each compound tested, one for a control plate, and one for the control compound.
b. Count cells on hemacytometer and resuspend them in 40 ml or 80 ml of Media A at a concentration of [1×10^4]0 cells/ml.
Counting Cells on a Hemacytomer:
Label two 1.8 ml nuc tubes 1 and 2.
Put 0.5 ml of well mixed CEM cells (in growth phase) in tube 1.
Put 50 micoliters PBS and 40 microliters of trypan blue into tube 2.
Mix up the cells in tube 1 then remove 10 microliters of cells and put them into tube 2.
Mix well in tube 2, then remove 10 microliters of the stained cells and put them on the hemacytometer.
Count the number of cells in the center square of the hemacytometer with the microscope set on 10×.
The concentration of the stock CEM's in cells/ml is as follows:
Cells counted×1×10^5=Concentration of CEM's in [cells/ml].
c. Add 200 microliters Media A to: A1 of places 2-6. These are Blanks. A4-H4 of plate 1. These are Blanks.
d. Add 5 microlicers Media A to all wells of Rows A-D of plates 2-6 except A1 (the top half of each plate).
e. Add 50 microliters of Media A to wells A1-D3 of Plate 1 (the top half of the plate).
f. Add 50 microliters Media A[l% DMSO] to all wells of Columns 1-3 of plate 1.
This puts 1000 cells/well.
h. Put plates in an incubator while doing drug dilutions.
Preparation Control and Test Drugs
(1) Put 60 microliters of DMSO into all wells of Columns 2-12, Rows A-E.
(3) Put 70 microliters of A [10 mM] at 100% DMSO into well B1.
(4) Put 70 microliters of B [10 mM] at 100% DMSO into well C1.
(5) Put 70 microliters of C [10 mM] at 100% DMSO into well D1.
(6) Put 70 microliters of D [10 mM] at 100% DMSO into well E1.
Change tips before each dilution.
(1) In rows A-E of another plate make a row for the first 1:10 dilution to correspond to each compound's 100% DMSO row.
A into Row B for the first 1:10 dilution.
B into Row C for the first 1:10 dilution.
C into Row D for the first 1:10 dilution.
D into Row E for the first 1:10 dilution.
(2) Put 180 microliters of media A into all wells of rows A-E corresponding to the 100% DMSO rows. 2.5 ml needed per row.
(3) Remove 20 microliters from all wells of each row of the 100% DMSO rows and transfer it to the corresponding 1:10 row.
(1) Make a plate for every 3 compounds to be tested.
Use 20 ml of media A per plate.
(3) Transfer 25 microliters of each compound from the row in the 1:10 dilution to the corresponding two rows on the 1:100 dilution plate changing tips before each transfer.
Addition of Viral SN123 to Plates
a. Thaw Sn123 in 37° C. water bath for approximately 10 minutes.
b. Dilute Sn123 1:16 by adding 1 ml of Sn123 to 15 ml of media A.
c. Add 50 microliters of Sn123 [1:16] to wells E1-H12 of plates 2-6 and to wells E1-H3 of plate 1.
Addition of Drugs to Plates
a. Add 50 microliters of the control and test drugs from the rows in the 1:100 dilution plates to the appropriate rows in the final plates (changing tips before each transfer). One row in the 1:100 plate will do 4 rows in the final plate. Leave A1 blank.
b. Incubate all plates 7 days at 37° C. 5% CO2.
c. Do Xtt protocol on day 7 as follows:
d. Preparation of Xtt/PMS Solution: (4 plate=20 ml) (6 plate=30 ml)
100 microliters [100 mM] PMS+4.9 ml PBS=PMS at [2 mM]
(2) Heat 500 ml of H2O in microwave for 5 minutes on high.
(3) Put 20 or 30 ml of phenol red RPMI in a 50 ml centrifuge tube.
(4) Put the RPMI in the beaker of hot water.
(5) Add 20 or 30 mg of XTT to the warmed up RPMI.

[4] = tested on: HIV-1 isolates IIIB and/or RF in CEM cells; assay: SRI primary anti-HIV screen, MTT assay of inhibition of HIV-induced cell killing in CEM cells; assay type: cell-based; details: CEM cells
Procedure: as §1
as §2, with “This” for “SRI has an established program for the primary antiviral analysis of compounds in microtiter assays which measures the ability of a selected compound to inhibit HIV-induced cell killing. This”
as §3, §4, §5
Drugs are solubilized in the appropriate vehicle such as distilled water or DMSO if necessary. Latex gloves, lab coats and masks are used during all phases of the handling process to prevent exposure to potentially harmful agents. The drug is prepared at the appropriate concentration and stored at −20° C. until used by the screening laboratory. The first dilution of each compound is made in a dilution tube with medium to yield a concentration two-fold that of the highest test concentration. Sterile titer tubes are then used to make serial one half-log dilutions of each compound. Following drug dilution, the diluted compound is added to the appropriate well of a 96-well microtiter plate. Up to 12 dilutions can be assayed conveniently in triplicate on a single plate with all appropriate controls including cell control, virus control, toxicity control, drug color control, medium control and plastic (background) control. When testing includes only six dilutions, two drugs can be assayed on a single microtiter plate. The drugs are added to the plate in a final volume of 100 microliters.
as §6, §7, §8, §9, §10
In general, pools produced by the acute infection method require the addition of one microliter of infectious virus per well resulting in the screening of drugs at a multiplicity of infection of 0.01. In this manner, enough virus is prepared and frozen to complete over one thousand microtiter plates, allowing the testing of up to two thousand compounds from a single stock of infectious virus.
Virus infection of the CEM and MT-2 cells for the antiviral assay is carried out in a bulk infection process.

[5] = normalized to positive control (=1.0), * = a calculated average, read-out: Fluorescence Assay IC50 in ng/mL (converted)
[6] = value as run, 35B value of the same run in footnote or parentheses, read-out: Pandex IC50 ng/ml (converted)
[7] = normalized to positive control (=1.0), * = a calculated average
[8] = value as run, 35B value of the same run in footnote or parentheses

Structure (SMILES) | IC50 [1, 5] [nM] | melting point [°C] | further results
CN1CCc2c(cccc2C(=O)N[C@@H](CSc2ccc3ccccc3c2)[C@H](O)Cc2ccccc2C(=O)NC(C)(C)C)C1 (relative stereo) [Example 59, [2′R-(2′R*,3′S*)]-N-t-Butyl-2-[2′-hydroxy-3′-naphth-2-ylthiomethyl-4′-aza-5′-oxo-5′-[2-N′(methyl)-1″,2″,3″,4″-tetrahydroisoquinolin-5″-yl)pentyl] benzamide] | 587 | 110 to 113 | –
Cc1c(OP(=O)(O)O)cccc1C(=O)N[C@@H](Cc1ccccc1)[C@H](O)CN1C[C@H]2CCCC[C@H]2C[C@H]1C(=O)NC(C)(C)C (relative stereo) [Example 78, [3S-(3R*, 4aR*, 8aR*, 2′S*, 3′R*)]-2-[2′-Hydroxy-3′-phenylmethyl-4′-aza-5′-oxo-5′-(2″-methyl-3″-Hydroxyphenyl)pentyl]decahydroisoquinoline-3-N-t-butyl carboxamide 3″-dihydrogen phosphate] | – | – | SRI MT2 IC50 [2]: 80.0 ng/mL; IC50 [1, 6]: 3240 nM; IC50 ([3]; read-out: Whole cell IC50 nM, CEM cells): 8.64 nM; IC90 ([3]; read-out: Whole cell IC90 nM, CEM cells): 66.5 nM
CC(C)(C)NC(=O)[C@@H]1C[C@@H]2SCC[C@@H]2CN1C[C@@H](O)[C@H](CSc1ccccc1)NC(=O)C1CCS(=O)(=O)C1 (relative stereo) [Example 89, [6S-(6R*, 3aS*, 7aR*, 2′S*, 3′S*)]-2-[2′-Hydroxy-3′-phenylthiomethyl-4′-aza-5′-oxo-5′-(tetrahydrothieno-3″-yl-1″,1″-dioxide)pentyl]-octahydrothieno[3,2-c]pyridine-6-N-t-butyl carboxamide] | – | – | CEM IC95 [4]: 98 nM; IC50 [1, 6]: 0.856 nM
CC(C)(C)NC(=O)C1CC2CCCCC2CN1CC(O)C(Cc1ccccc1)NC(=O)c1cccc(Cl)c1Cl (stereo not drawn) [Example 14, [3S-(3R*,4aR*,8aR*,2′S*,3′R*)]-2-[2′-Hydroxy-3′-phenylmethyl-4′-aza-5′-oxo-5′-(2″,3″-dichloro-phenyl)pentyl] decahydroisoquinoline-3-N-t-butylcarboxamide] | – | – | SRI MT2 IC50 [2]: 1610 ng/mL and 1290 ng/mL; Fluorescence Assay IC50 [1, 7]: 101 ng/mL; Pandex IC50 ng/ml [1, 8]: 48.7^d ng/ml
Cc1cnccc1C(=O)NC(CSc1ccccc1)C(O)CN1CCN(Cc2cccnc2)CC1C(=O)NC(C)(C)C (stereo not drawn) [Example 35, [2S-(2R*,2′S*,3′S*)]-1-[2′-Hydroxy-3′-phenylthiomethyl-4′-aza-5′-oxo-5′-(3″-methyl-pyrid-4″-yl)[pentyl]-4-(pyrid-3′″-ylmethyl)piperazine-2-N-t-butylcarboxamide] | – | – | SRI MT2 IC50 [2]: 519 ng/mL and 368 ng/mL; Fluorescence Assay IC50 [1, 7]: 31.7 ng/mL; Pandex IC50 ng/ml [1, 8]: 73^c ng/ml
Cc1c(N)cccc1C(=O)NC(CSc1ccc2ccccc2c1)C(O)Cc1ccccc1C(=O)NC(C)(C)C (stereo not drawn) [Example 42, [2′R-(2′R*,3′S*)]-N-t-Butyl-2-[2′-hydroxy-3′-naphth-2-ylthiomethyl-4′-aza-5′-oxo-5′-(2″-methyl-3″-aminophenyl)pentyl] benzamide] | 191 | 105 to 106 | –
CC(C)(C)NC(=O)c1ccccc1C[C@@H](O)[C@@H](CSc1ccc2ccccc2c1)NC(=O)c1cccc(N)c1Cl [Example 44, [2′R-(2′R*,3′S*)]-N-t-Butyl-2-[2′-hydroxy-3′-naphth-2-ylthiomethyl-4′-aza-5′-oxo-5′-(2″-chloro-3″-aminophenyl)pentyl] benzamide] | 121 | 107 to 108 | –
CC(C)(C)NC(=O)c1ccccc1CC(O)C(CSc1ccc2ccccc2c1)NC(=O)c1cccc(N)c1Br (stereo not drawn) [Example 45, [2′R-(2′R*,3′S*)]-N-t-Butyl-2-[2′-hydroxy-3′-naphth-2-ylthiomethyl-4′-aza-5′-oxo-5′-(2″-bromo-3″-aminophenyl)pentyl] benzamide] | 214 | 110 to 112 | –
CC(C)(C)NC(=O)c1c(CC(O)C(CSc2ccc3ccccc3c2)NC(=O)c2cccc(N)c2Cl)ccc2ccccc12 (stereo not drawn) [Example 49, [2′R-(2′R*,3′S*)]-N-t-Butyl-2-[2′-hydroxy-3′-naphth-2-ylthiomethyl-4′-aza-5′-oxo-5′-(2″-chloro-3″-aminophenyl)pentyl]-1-naphthylamide] | 137 | 110 to 112 | –
CC(C)(C)NC(=O)c1ccccc1CC(O)C(CSc1ccc2ccccc2c1)NC(=O)c1cccc(N)c1 (stereo not drawn) [Example 50, [2′R-(2′R*,3′S*)]-N-t-Butyl-2-[2′-hydroxy-3′-naphth-2-ylthiomethyl-4′-aza-5′-oxo-5′-(3″-aminophenyl)pentyl] benzamide] | 222 | 101 to 102 | –
CC(C)(C)NC(=O)c1ccccc1CC(O)C(CSc1ccc2ccccc2c1)NC(=O)c1cc(N)ccc1Cl (stereo not drawn) [Example 55, [2′R-(2′R*,3′S*)]-N-t-Butyl-2-[2′-hydroxy-3′-naphth-2-ylthiomethyl-4′-aza-5′-oxo-5′-(2″-chloro-5″-aminophenyl)pentyl] benzamide] | 194 | 109 to 110 | –
CC(C)(C)NC(=O)c1ccccc1C[C@@H](O)[C@@H](CSc1ccc2ccccc2c1)NC(=O)c1cccc2ccccc12 [Example 61, [2′R-(2′R*,3′S*)]-N-t-Butyl-2-[2′-hydroxy-3′-naphth-2-ylthiomethyl-4′-aza-5′-oxo-5′-(naphth-1″-yl)pentyl] benzamide] | 2770 | 92 to 95 | –
CC(C)(C)NC(=O)c1ccccc1C[C@@H](O)[C@@H](CSc1ccc2ccccc2c1)NC(=O)c1cccc2[nH]ccc12 [Example 62, [2′R-(2′R*,3′S*)]-N-t-Butyl-2-[2′-hydroxy-3′-naphth-2-ylthiomethyl-4′-aza-5′-oxo-5′-(indol-4″-yl)pentyl] benzamide] | 350 | 109 to 110 | –

From patent US20030216569A1, “Method of making HIV protease inhibitors” (priority 1993, published 2003)
